pIC50: −log10 of the molar value.
Tested on: 883617-216-R-J1-PDC tumor spheroids, viability
Experiment: Anticancer human tumor 883617-216-R-J1-PDC patient-derived bladder carcinoma cell line growth inhibition [PI3K]
Details: spheroids with HUVEC and MSC; for pIC50: curve of first compound; for viability, T/C: stronger effect = lower value
Outline: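 Tumor cells were combined with HUVEC and MSCs into spheroids, then dosed with PI3K-inhibitor combinations over half-log ranges capped near clinical Cmax or 10 microM.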

[1] = second compound 0.00316 µM, first compound 0.0316 µM
[2] = second compound 0.00316 µM, first compound 0.1 µM
[3] = second compound 0.00316 µM, first compound 0.316 µM
[4] = second compound 0.00316 µM, first compound 1 µM
[5] = second compound 0.00316 µM, first compound 3.16 µM
[6] = second compound 0.00316 µM, first compound 10 µM
[7] = second compound 0.01 µM, first compound 0.0316 µM
[8] = second compound 0.01 µM, first compound 0.1 µM
[9] = second compound 0.01 µM, first compound 0.316 µM
[10] = second compound 0.01 µM, first compound 1 µM
[11] = second compound 0.01 µM, first compound 3.16 µM
[12] = second compound 0.01 µM, first compound 10 µM
[13] = second compound 0.0316 µM, first compound 0.0316 µM
[14] = second compound 0.0316 µM, first compound 0.1 µM
[15] = second compound 0.0316 µM, first compound 0.316 µM
[16] = second compound 0.0316 µM, first compound 1 µM
[17] = second compound 0.0316 µM, first compound 3.16 µM
[18] = second compound 0.0316 µM, first compound 10 µM
[19] = second compound 0.1 µM, first compound 0.0316 µM
[20] = second compound 0.1 µM, first compound 0.1 µM
[21] = second compound 0.1 µM, first compound 0.316 µM
[22] = second compound 0.1 µM, first compound 1 µM
[23] = second compound 0.1 µM, first compound 3.16 µM
[24] = second compound 0.1 µM, first compound 10 µM
[25] = second compound 0.316 µM, first compound 0.0316 µM
[26] = second compound 0.316 µM, first compound 0.1 µM
[27] = second compound 0.316 µM, first compound 0.316 µM
[28] = second compound 0.316 µM, first compound 1 µM
[29] = second compound 0.316 µM, first compound 3.16 µM
[30] = second compound 0.316 µM, first compound 10 µM
[31] = second compound 1 µM, first compound 0.0316 µM
[32] = second compound 1 µM, first compound 0.1 µM
[33] = second compound 1 µM, first compound 0.316 µM
[34] = second compound 1 µM, first compound 1 µM
[35] = second compound 1 µM, first compound 3.16 µM
[36] = second compound 1 µM, first compound 10 µM
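Further: spheroids exposed to agents for 7 days before the viability read.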

## CC1(C)CCC(CN2CCN(c3ccc(C(=O)NS(=O)(=O)c4ccc(NCC5CCOCC5)c([N+](=O)[O-])c4)c(Oc4cnc5[nH]ccc5c4)c3)CC2)=C(c2ccc(Cl)cc2)C1 + COc1c(OCCCN2CCOCC2)ccc2c3n(c(=NC(=O)c4cnc(N)nc4)nc12)CCN3
Second compound 0.00316 µM
  pIC50: < 5.00
Second compound 0.01 µM
  pIC50: < 5.00
Second compound 0.0316 µM
  pIC50: > 7.50
Second compound 0.1 µM
  pIC50: > 7.50
Second compound 0.316 µM
  pIC50: > 7.50
Second compound 1 µM
  pIC50: > 7.50
[1]
  viability, T/C: 86.9%
[2]
  viability, T/C: 84.3%
[3]
  viability, T/C: 77.5%
[4]
  viability, T/C: 83.7%
[5]
  viability, T/C: 82.7%
[6]
  viability, T/C: 110%
[7]
  viability, T/C: 68%
[8]
  viability, T/C: 67.9%
[9]
  viability, T/C: 66.5%
[10]
  viability, T/C: 68.5%
[11]
  viability, T/C: 66.1%
[12]
  viability, T/C: 58.2%
[13]
  viability, T/C: 32.3%
[14]
  viability, T/C: 35.8%
[15]
  viability, T/C: 40.5%
[16]
  viability, T/C: 39.1%
[17]
  viability, T/C: 35.3%
[18]
  viability, T/C: 35.5%
[19]
  viability, T/C: 27.5%
[20]
  viability, T/C: 15.1%
[21]
  viability, T/C: 17%
[22]
  viability, T/C: 17.8%
[23]
  viability, T/C: 15.2%
[24]
  viability, T/C: 13.1%
[25]
  viability, T/C: 6.5%
[26]
  viability, T/C: 4.66%
[27]
  viability, T/C: 5.31%
[28]
  viability, T/C: 5.04%
[29]
  viability, T/C: 4.63%
[30]
  viability, T/C: 4.02%
[31]
  viability, T/C: 3.29%
[32]
  viability, T/C: 2.86%
[33]
  viability, T/C: 2.77%
[34]
  viability, T/C: 3.15%
[35]
  viability, T/C: 2.53%
[36]
  viability, T/C: 2.82%

## C[C@@H](NC(=O)c1ncnc(N)c1Cl)c1ncc(C(=O)Nc2cc(C(F)(F)F)c(Cl)cn2)s1 + COc1c(OCCCN2CCOCC2)ccc2c3n(c(=NC(=O)c4cnc(N)nc4)nc12)CCN3
Second compound 0.00316 µM
  pIC50: < 5.00
Second compound 0.01 µM
  pIC50: < 5.00
Second compound 0.0316 µM
  pIC50: > 7.50
Second compound 0.1 µM
  pIC50: > 7.50
Second compound 0.316 µM
  pIC50: > 7.50
Second compound 1 µM
  pIC50: > 7.50
[1]
  viability, T/C: 86.2%
[2]
  viability, T/C: 83.1%
[3]
  viability, T/C: 86.1%
[4]
  viability, T/C: 96%
[5]
  viability, T/C: 70.9%
[6]
  viability, T/C: 59.9%
[7]
  viability, T/C: 88.2%
[8]
  viability, T/C: 71.5%
[9]
  viability, T/C: 72.5%
[10]
  viability, T/C: 87.5%
[11]
  viability, T/C: 71.5%
[12]
  viability, T/C: 56.6%
[13]
  viability, T/C: 38.3%
[14]
  viability, T/C: 41.2%
[15]
  viability, T/C: 42.1%
[16]
  viability, T/C: 50.4%
[17]
  viability, T/C: 40.8%
[18]
  viability, T/C: 30.9%
[19]
  viability, T/C: 19%
[20]
  viability, T/C: 20.6%
[21]
  viability, T/C: 23.1%
[22]
  viability, T/C: 22%
[23]
  viability, T/C: 20.5%
[24]
  viability, T/C: 14.5%
[25]
  viability, T/C: 7.26%
[26]
  viability, T/C: 7.17%
[27]
  viability, T/C: 7.53%
[28]
  viability, T/C: 7.56%
[29]
  viability, T/C: 9.7%
[30]
  viability, T/C: 5.01%
[31]
  viability, T/C: 5.51%
[32]
  viability, T/C: 5.13%
[33]
  viability, T/C: 5.48%
[34]
  viability, T/C: 5.61%
[35]
  viability, T/C: 5.29%
[36]
  viability, T/C: 2.13%

## Cn1ncnc1[C@H]1c2n[nH]c(=O)c3cc(F)cc(c23)N[C@@H]1c1ccc(F)cc1 + COc1c(OCCCN2CCOCC2)ccc2c3n(c(=NC(=O)c4cnc(N)nc4)nc12)CCN3
Second compound 0.00316 µM
  pIC50: < 7.00
Second compound 0.01 µM
  pIC50: < 7.00
Second compound 0.0316 µM
  pIC50: > 9.50
Second compound 0.1 µM
  pIC50: > 9.50
Second compound 0.316 µM
  pIC50: > 9.50
Second compound 1 µM
  pIC50: > 9.50
Second compound 0.00316 µM, first compound 0.000316 µM
  viability, T/C: 88.1%
Second compound 0.00316 µM, first compound 0.001 µM
  viability, T/C: 79.5%
Second compound 0.00316 µM, first compound 0.00316 µM
  viability, T/C: 87.2%
Second compound 0.00316 µM, first compound 0.01 µM
  viability, T/C: 75.3%
[1]
  viability, T/C: 67.2%
[2]
  viability, T/C: 54.6%
Second compound 0.01 µM, first compound 0.000316 µM
  viability, T/C: 63.2%
Second compound 0.01 µM, first compound 0.001 µM
  viability, T/C: 64.7%
Second compound 0.01 µM, first compound 0.00316 µM
  viability, T/C: 64.9%
Second compound 0.01 µM, first compound 0.01 µM
  viability, T/C: 86.1%
[7]
  viability, T/C: 54.8%
[8]
  viability, T/C: 45%
Second compound 0.0316 µM, first compound 0.000316 µM
  viability, T/C: 31.3%
Second compound 0.0316 µM, first compound 0.001 µM
  viability, T/C: 36.6%
Second compound 0.0316 µM, first compound 0.00316 µM
  viability, T/C: 35.3%
Second compound 0.0316 µM, first compound 0.01 µM
  viability, T/C: 33.9%
[13]
  viability, T/C: 39.3%
[14]
  viability, T/C: 29%
Second compound 0.1 µM, first compound 0.000316 µM
  viability, T/C: 16%
Second compound 0.1 µM, first compound 0.001 µM
  viability, T/C: 17.7%
Second compound 0.1 µM, first compound 0.00316 µM
  viability, T/C: 16.2%
Second compound 0.1 µM, first compound 0.01 µM
  viability, T/C: 15.3%
[19]
  viability, T/C: 15.6%
[20]
  viability, T/C: 14.1%
Second compound 0.316 µM, first compound 0.000316 µM
  viability, T/C: 5.21%
Second compound 0.316 µM, first compound 0.001 µM
  viability, T/C: 5.06%
Second compound 0.316 µM, first compound 0.00316 µM
  viability, T/C: 5.56%
Second compound 0.316 µM, first compound 0.01 µM
  viability, T/C: 5.19%
[25]
  viability, T/C: 5.74%
[26]
  viability, T/C: 3.68%
Second compound 1 µM, first compound 0.000316 µM
  viability, T/C: 4.93%
Second compound 1 µM, first compound 0.001 µM
  viability, T/C: 4.65%
Second compound 1 µM, first compound 0.00316 µM
  viability, T/C: 3.52%
Second compound 1 µM, first compound 0.01 µM
  viability, T/C: 2.9%
[31]
  viability, T/C: 3.13%
[32]
  viability, T/C: 2.73%
